Measurements reported in US7348440B2, “Mitotic kinesin inhibitors” (Merck & Co., Inc., priority 2002, dated 2008).
Read-outs that look alike come from different tables or passages of the source.

Molecular target: T1, human KSP motor domain (KSP(367H)) (Homo sapiens, UniProt P52732)
T1 construct: were used to amplify the motor domain and the neck linker region; made in house; host or cells: E. coli BL21 (DE3), pRSETa vector
T1 sequence (P52732 18-359 limits assumed): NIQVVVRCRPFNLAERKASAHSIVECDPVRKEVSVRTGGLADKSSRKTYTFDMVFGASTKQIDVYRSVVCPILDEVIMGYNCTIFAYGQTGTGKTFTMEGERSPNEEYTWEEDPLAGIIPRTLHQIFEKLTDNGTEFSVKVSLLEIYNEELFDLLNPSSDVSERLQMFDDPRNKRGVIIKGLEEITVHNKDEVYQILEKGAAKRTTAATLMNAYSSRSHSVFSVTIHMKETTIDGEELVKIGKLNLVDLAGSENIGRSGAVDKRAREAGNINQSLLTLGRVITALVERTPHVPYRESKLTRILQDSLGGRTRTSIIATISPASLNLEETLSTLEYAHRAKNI
Assay: Kinesin ATPase In Vitro Assay
Type: biochemical
Procedure: I. Kinesin ATPase In Vitro Assay
The N-terminal primer 5′-[…] (SEQ.ID.NO.: 1) and the C-terminal primer 5′-[…] […] (SEQ.ID.NO.: 2) were used to amplify the motor domain and the neck linker region. The PCR products were digested with AseI and XhoI, ligated into the NdeI/XhoI digestion product of pRSETa (Invitrogen) and transformed into E. coli BL21 (DE3).
Cells were grown at 37° C. to an OD600 of 0.5. After cooling the culture to room temperature expression of KSP was induced with 100 μM IPTG and incubation was continued overnight. Cells were pelleted by centrifugation and washed once with ice-cold PBS. Pellets were flash-frozen and stored −80° C.
Cell pellets were thawed on ice and resuspended in lysis buffer (50 mM K-HEPES, pH 8.0, 250 mM KCl, 0.1% Tween, 10 mM imidazole, 0.5 mM Mg-ATP, 1 mM PMSF, 2 mM benzimidine, 1× complete protease inhibitor cocktail (Roche)). Cell suspensions were incubated with 1 mg/ml lysozyme and 5 mM β-mercaptoethanol on ice for 10 minutes, followed by sonication (3×30 sec). All subsequent procedures were performed at 4° C. Lysates were centrifuged at 40,000×g for 40 minutes. Supernatants were diluted and loaded onto an SP Sepharose column (Pharmacia, 5 ml cartridge) in buffer A (50 mM K-HEPES, pH 6.8, 1 mM MgCl2, 1 mM EGTA, 10 μM Mg-ATP, 1 mM DTT) and eluted with a 0 to 750 mM KCl gradient in buffer A. Fractions containing KSP were pooled and incubated with Ni-NTA resin (Qiagen) for one hour. The resin was washed three times with buffer B (Lysis buffer minus PMSF and protease inhibitor cocktail), followed by three 15-minute incubations and washes with buffer B. Finally, the resin was incubated and washed for 15 minutes three times with buffer C (same as buffer B except for pH 6.0) and poured into a column. KSP was eluted with elution buffer (identical to buffer B except for 150 mM KCl and 250 mM imidazole). KSP-containing fractions were pooled, made 10% in sucrose, and stored at −80° C.
Microtubules are prepared from tubulin isolated from bovine brain. Purified tubulin (>97% MAP-free) at 1 mg/ml is polymerized at 37° C. in the presence of 10 μM paclitaxel, 1 mM DTT, 1 mM GTP in BRB80 buffer (80 mM K-PIPES, 1 mM EGTA, 1 mM MgCl2 at pH 6.8). The resulting microtubules are separated from non-polymerized tubulin by ultracentrifugation and removal of the supernatant. The pellet, containing the microtubules, is gently resuspended in 10 μM paclitaxel, 1 mM DTT, 50 μg/ml ampicillin, and 5 μg/ml chloramphenicol in BRB80.
The kinesin motor domain is incubated with microtubules, 1 mM ATP (1:1 MgCl2: Na-ATP), and compound at 23° C. in buffer containing 80 mM K-HEPES (pH 7.0), 1 mM EGTA, 1 mM DTT, 1 mM MgCl2, and 50 mM KCl. The reaction is terminated by a 2-10 fold dilution with a final buffer composition of 80 mM HEPES and 50 mM EDTA (or, alternately, with a 1:1 addition of reaction volume to stop buffer(1.8M KCl and 50 mM EDTA)). Free phosphate from the ATP hydrolysis reaction is measured via a quinaldine red/ammonium molybdate assay by adding a 1.5 times volume of quench C (e.g., to a mixture of 40 μl reaction volume+40 μl stop buffer is then added 120 μl quench C). […] Quench C is a 2:1 ratio of quench A:quench B The reaction is incubated for 5-10 minutes at 23° C., and the absorbance of the phospho-molybdate complex is measured at 540 nm.

[1] = kinesin motor domain incubated with microtubules, 1 mM ATP and compound at 23° C., free phosphate by quinaldine red/ammonium molybdate, absorbance 540 nm, read-out: IC50

Row | SMILES | IC50 [1] [µM] | IC50 [µM]
1 | CCS(=O)(=O)C(C)CN1CC(c2cc(F)ccc2F)=C[C@H]1c1ccccc1 (single isomer, unassigned) [38-1] | ≤ 50 | –
2 | CN(C)C(=O)N1CC(c2cc(F)ccc2Cl)=CC1c1ccccc1 (stereo not shown) [1-6, 4-(2-chloro-5-fluorophenyl)-N,N-dimethyl-2-phenyl-2,5-dihydro-1H-pyrrole-1-carboxamide] | ≤ 50 | –
3 | CN(C)C(=O)N1CC(c2cc(C(F)(F)F)ccc2F)C=C1c1ccccc1 (stereo not shown) [3-2, 3-[2-fluoro-5-(trifluoromethyl)phenyl]-N,N-dimethyl-5-phenyl-2,3-dihydro-1H-pyrrole-1-carboxamide] | ≤ 50 | –
4 | NCCS(=O)(=O)N1CC(c2cc(F)ccc2F)=CC1c1ccccc1 (stereo not shown) [7-2, 2-{[4-(2,5-difluorophenyl)-2-phenyl-2,5-dihydro-1H-pyrrol-1-yl]sulfonyl}ethanamine] | ≤ 50 | –
5 | CN(C)CCS(=O)(=O)N1CC(c2cc(F)ccc2F)=CC1c1ccccc1 (stereo not shown) [8-2, 2-{[4-(2,5-difluorophenyl)-2-phenyl-2,5-dihydro-1H-pyrrol-1-yl]sulfonyl}-N,N-dimethylethanamine] | ≤ 50 | –
6 | CC(=O)N1CC(c2cc(F)ccc2F)=CC1c1ccccc1 (stereo not shown) [9-1, 1-acetyl-4-(2,5-difluorophenyl)-2-phenyl-2,5-dihydro-1H-pyrrole] | ≤ 50 | –
7 | CC(C)(O)C(=O)N1CC(c2cc(F)ccc2F)=CC1c1ccccc1 (stereo not shown) [11-1, 1-[4-(2,5-difluorophenyl)-2-phenyl-2,5-dihydro-1H-pyrrol-1-yl]-2-methyl-1-oxopropan-2-ol] | ≤ 50 | –
8 | CC(C)(N)C(=O)N1CC(c2cc(F)ccc2F)=CC1c1ccccc1 (stereo not shown) [12-1, 1-[4-(2,5-difluorophenyl)-2-phenyl-2,5-dihydro-1H-pyrrol-1-yl]-2-methyl-1-oxopropan-2-amine] | ≤ 50 | –
9 | [C-]#[N+]c1ccc(F)c(C2=CC(c3ccccc3)N(C(=O)N(C)C)C2)c1 (stereo not shown) [13-1, 4-(2-fluoro-5-isocyanophenyl)-N,N-dimethyl-2-phenyl-2,5-dihydro-1H-pyrrole-1-carboxamide] | ≤ 50 | –
10 | CN(C(=O)N1CC(c2cc(F)ccc2F)=C[C@H]1c1ccccc1)C1CCNCC1 [18-4, (2S)-4-(2,5-Difluorophenyl)-N-methyl-2-phenyl-N-piperidin-4-yl-2,5-dihydro-1H-pyrrole-1-carboxamide] | – | ≤ 50
11 | CN(CC1CCNCC1)C(=O)N1CC(c2cc(F)ccc2F)=C[C@H]1c1ccccc1 [18a-6, (2S)-4-(2,5-Difluorophenyl)-N-methyl-2-phenyl-N-(piperidin-4-ylmethyl)-2,5-dihydro-1H-pyrrole-1-carboxamide] | ≤ 50 | –
12 | CN(C(=O)N1CC(c2cc(Cl)ccc2F)=C[C@H]1c1ccccc1)[C@@H]1CCNC1 [18b-8, (2S)-4-(5-Chloro-2-fluorophenyl)-N-methyl-2-phenyl-N-[(3R)-pyrrolidin-3-yl]-2,5-dihydro-1H-pyrrole-1-carboxamide] | ≤ 50 | –
13 | CC(C)(C)OC(=O)N1CC(OS(=O)(=O)C(F)(F)F)=C[C@H]1c1ccccc1 [compound 54, (2S)-tert-butyl 2-phenyl-4-{[(trifluoromethyl)sulfonyl]oxy}-2,5-dihydro-1H-pyrrole-1-carboxylate] | ≤ 50 | –
